US11168073B2, “3,3-difluoroallylamines or salts thereof and pharmaceutical compositions comprising the same” (YUHAN CORPORATION, priority 2018, dated 2021)
Counter-ions that a name gives are not always drawn. Like-named read-outs stand apart in the source and are kept apart here.

Experiments:
Assay type in all cases: biochemical
[1] = molecular target: T1, recombinant human MAO-A (monoamine oxidase-A) (Homo sapiens, UniProt P21397); assay: Activity evaluation on recombinant human MAO-A (Amplex Red/HRP-coupled assay, 0.5 mM tyramine substrate); conditions: read-out: Inhibitory Activity (IC50, nM) MAO-A
T1 construct: purchased Sigma-Aldrich
T1 sequence (P21397 1-527): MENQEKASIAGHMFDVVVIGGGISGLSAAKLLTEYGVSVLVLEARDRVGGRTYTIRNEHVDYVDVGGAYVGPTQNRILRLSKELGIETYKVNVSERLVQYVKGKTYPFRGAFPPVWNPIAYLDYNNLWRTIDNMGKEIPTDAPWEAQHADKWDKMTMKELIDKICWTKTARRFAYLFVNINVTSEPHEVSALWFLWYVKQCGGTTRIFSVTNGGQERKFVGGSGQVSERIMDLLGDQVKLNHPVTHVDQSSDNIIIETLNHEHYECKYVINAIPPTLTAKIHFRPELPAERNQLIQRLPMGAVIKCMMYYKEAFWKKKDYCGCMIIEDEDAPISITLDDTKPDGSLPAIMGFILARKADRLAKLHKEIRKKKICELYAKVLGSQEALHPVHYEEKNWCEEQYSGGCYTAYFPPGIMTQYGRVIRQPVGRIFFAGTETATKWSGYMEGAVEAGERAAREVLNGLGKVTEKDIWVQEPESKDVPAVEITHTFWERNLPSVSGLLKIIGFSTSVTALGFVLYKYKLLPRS
How it was run: (§1)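 8-pt 1:3 dilution series, final DMSO <1%; 30 min 37 °C preincubation w/ enzyme, 50 mM Na phosphate pH 7.4; + 200 uM Amplex Red, 1 U/mL HRP, substrate (MAO-A tyramine 0.5 mM; MAO-B benzylamine 1 mM; DAO putrescine 1 mM); fluor. rate 544/590 nm, 1-2 h; 4-param IC50.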

[2] = molecular target: T2, recombinant human DAO (diamine oxidase) (Homo sapiens, UniProt P19801); assay: Activity evaluation on recombinant human DAO (Amplex Red/HRP-coupled assay, 1 mM putrescine substrate); conditions: read-out: Inhibitory Activity (IC50, nM) DAO
T2 construct: purchased R&D systems
T2 sequence (P19801 20-751): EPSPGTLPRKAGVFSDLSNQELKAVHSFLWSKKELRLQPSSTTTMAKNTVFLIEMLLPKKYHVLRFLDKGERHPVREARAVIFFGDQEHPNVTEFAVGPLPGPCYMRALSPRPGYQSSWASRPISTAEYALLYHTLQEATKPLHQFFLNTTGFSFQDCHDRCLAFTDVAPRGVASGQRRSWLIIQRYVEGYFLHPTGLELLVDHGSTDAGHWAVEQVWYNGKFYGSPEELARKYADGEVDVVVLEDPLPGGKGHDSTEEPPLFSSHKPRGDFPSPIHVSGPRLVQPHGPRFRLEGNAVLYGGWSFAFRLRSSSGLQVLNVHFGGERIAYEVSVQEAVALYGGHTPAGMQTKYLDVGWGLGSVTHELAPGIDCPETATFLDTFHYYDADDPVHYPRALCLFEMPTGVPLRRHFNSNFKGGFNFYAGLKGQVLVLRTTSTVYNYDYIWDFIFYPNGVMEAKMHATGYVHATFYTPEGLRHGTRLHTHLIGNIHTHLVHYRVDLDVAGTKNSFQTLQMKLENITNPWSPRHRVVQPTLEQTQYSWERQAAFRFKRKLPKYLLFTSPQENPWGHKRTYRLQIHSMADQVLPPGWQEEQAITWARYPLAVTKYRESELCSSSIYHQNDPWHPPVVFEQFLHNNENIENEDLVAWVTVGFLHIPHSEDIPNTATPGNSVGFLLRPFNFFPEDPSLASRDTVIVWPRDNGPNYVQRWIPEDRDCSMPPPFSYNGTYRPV
How it was run: as §1

[3] = molecular target: T3, recombinant human VAP-1 (Homo sapiens, UniProt Q16853); assay: Activity evaluation on recombinant human VAP-1 (Amplex Red/HRP-coupled hydrogen peroxide assay, benzylamine substrate); conditions: read-out: Inhibitory Activity (IC50, nM) human VAP-1
T3 construct: purchased R&D systems
T3 sequence (Q16853 1-763): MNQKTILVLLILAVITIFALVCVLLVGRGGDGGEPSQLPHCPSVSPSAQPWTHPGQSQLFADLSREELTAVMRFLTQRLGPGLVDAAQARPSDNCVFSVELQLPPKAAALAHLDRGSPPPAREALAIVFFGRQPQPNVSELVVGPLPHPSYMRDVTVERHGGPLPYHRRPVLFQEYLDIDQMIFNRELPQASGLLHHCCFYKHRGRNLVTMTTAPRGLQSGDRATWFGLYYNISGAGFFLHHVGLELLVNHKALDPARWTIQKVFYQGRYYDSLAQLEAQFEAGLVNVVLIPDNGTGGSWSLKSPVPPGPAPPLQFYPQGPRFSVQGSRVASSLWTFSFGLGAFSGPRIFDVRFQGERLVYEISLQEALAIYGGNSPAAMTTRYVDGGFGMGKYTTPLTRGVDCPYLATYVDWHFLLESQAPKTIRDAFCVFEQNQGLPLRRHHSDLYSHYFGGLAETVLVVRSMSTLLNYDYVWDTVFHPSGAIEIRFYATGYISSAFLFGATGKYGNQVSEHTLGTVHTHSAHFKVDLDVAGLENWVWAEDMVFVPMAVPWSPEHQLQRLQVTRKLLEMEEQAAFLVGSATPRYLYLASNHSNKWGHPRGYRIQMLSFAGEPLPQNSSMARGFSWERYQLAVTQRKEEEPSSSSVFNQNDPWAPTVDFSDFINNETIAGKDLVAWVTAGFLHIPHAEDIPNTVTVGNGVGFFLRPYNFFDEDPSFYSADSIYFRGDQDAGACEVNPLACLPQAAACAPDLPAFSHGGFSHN
How it was run: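 Hydrogen peroxide from benzylamine (1 mM) oxidation by human recombinant VAP-1 detected via HRP-coupled Amplex Red (200 uM) fluorescence, kinetic over 1–2 h. Enzyme and compound preincubated 30 min at 37 °C, pH 7.4 phosphate; 8-point dose response, signal-rate decrease versus DMSO control fitted to four-parameter logistic for IC50.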

[4] = molecular target: T4, recombinant human MAO-B (monoamine oxidase-B) (Homo sapiens, UniProt P27338); assay: Activity evaluation on recombinant human MAO-B (Amplex Red/HRP-coupled assay, 1 mM benzylamine substrate); conditions: read-out: Inhibitory Activity (IC50, nM) MAO-B
T4 construct: purchased Sigma-Aldrich
T4 sequence (P27338 1-520): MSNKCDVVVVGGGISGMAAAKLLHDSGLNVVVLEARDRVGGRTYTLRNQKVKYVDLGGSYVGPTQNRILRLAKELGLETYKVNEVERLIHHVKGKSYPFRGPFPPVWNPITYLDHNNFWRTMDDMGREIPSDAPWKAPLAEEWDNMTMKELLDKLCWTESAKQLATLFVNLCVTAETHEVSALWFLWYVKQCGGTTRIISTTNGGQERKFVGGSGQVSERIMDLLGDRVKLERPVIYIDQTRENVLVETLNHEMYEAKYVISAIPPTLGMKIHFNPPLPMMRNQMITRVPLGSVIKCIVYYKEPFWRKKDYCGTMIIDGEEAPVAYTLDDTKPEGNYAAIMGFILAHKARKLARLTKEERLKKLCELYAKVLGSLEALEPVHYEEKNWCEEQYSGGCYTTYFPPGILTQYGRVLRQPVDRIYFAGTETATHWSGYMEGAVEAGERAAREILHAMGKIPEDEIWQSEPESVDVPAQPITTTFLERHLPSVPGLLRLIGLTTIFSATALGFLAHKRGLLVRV
How it was run: as §1

[5] = recombinant human VAP-1, 30 min preincubation at 37° C., 1 mM benzylamine
[6] = recombinant human VAP-1, benzylamine substrate

SMILES | IC50 ([1]; 0.5 mM tyramine) | IC50 ([2]; 1 mM putrescine) | IC50 [3, 5] | IC50 ([4]; 1 mM benzylamine) | IC50 ([1]; 0.5 mM tyramine substrate) | IC50 ([2]; 1 mM putrescine substrate) | IC50 [3, 6] | IC50 ([4]; 1 mM benzylamine substrate)
NCC(Cn1ncn(Cc2cc(-c3ccc(C(F)(F)F)nc3)cs2)c1=O)=C(F)F [Example 148, 2-[2-(aminomethyl)-3,3-difluoro-allyl]-4-[[4-[6-(trifluoromethyl)-3-pyridyl]-2-thienyl]methyl]-1,2,4-triazol-3-one Trifluoroacetate] | > 100000 nM | 6300 nM | 0.7 nM | 8700 nM |  |  |  | 
NCC(Cn1ncn(Cc2cc3cc(-c4ccc5c(c4)OCO5)ccc3s2)c1=O)=C(F)F [Example 209, 2-[2-(aminomethyl)-3,3-difluoro-allyl]-4-[[5-(1,3-benzodioxol-5-yl)benzothiophen-2-yl]methyl]-1,2,4-triazol-3-one Trifluoroacetate] |  |  |  |  | > 100000 nM | 93700 nM | 4.3 nM | 5180 nM
Cc1cc(-n2cnn(CC(CN)=C(F)F)c2=O)cnc1-c1ccc(S(C)(=O)=O)cc1 [Example 76, 2-[2-(aminomethyl)-3,3-difluoro-allyl]-4-[5-methyl-6-(4-methylsulfonylphenyl)-3-pyridyl]-1,2,4-triazol-3-one Trifluoroacetate] | > 100000 nM | 32 nM | 1.1 nM | 44000 nM |  |  |  | 
NCC(Cn1ncn(-c2ccc(-c3ccc4c(c3)OCO4)c(F)c2)c1=O)=C(F)F [Example 28, 2-[2-(aminomethyl)-3,3-difluoro-allyl]-4-[4-(1,3-benzodioxol-5-yl)-3-fluoro-phenyl]-1,2,4-triazol-3-one Trifluoroacetate] | > 100000 nM | 1600 nM | 1.2 nM | 85 nM |  |  |  | 
NCC(Cn1ncn(CCc2ccc(-c3ccc4c(c3)OCO4)s2)c1=O)=C(F)F [Example 177, 2-[2-(aminomethyl)-3,3-difluoro-allyl]-4-[2-[5-(1,3-benzodioxol-5-yl)-2-thienyl]ethyl]-1,2,4-triazol-3-one Trifluoroacetate] | > 100000 nM | 2500 nM | 1.2 nM | 700 nM |  |  |  | 
CN1C(=O)CCc2cc(-c3cc(-n4cnn(CC(CN)=C(F)F)c4=O)ccn3)ccc21 [Example 66, 6-[4-[1-[2-(aminomethyl)-3,3-difluoro-allyl]-5-oxo-1,2,4-triazol-4-yl]-2-pyridyl]-1-methyl-3,4-dihydroquinolin-2-one Trifluoroacetate] | > 100000 nM | 250 nM | 0.6 nM | 4800 nM |  |  |  | 
CCn1cc(-c2ccc(Cn3cnn(CC(CN)=C(F)F)c3=O)cc2)ccc1=O [Example 270, 5-[4-[[1-[2-(aminomethyl)-3,3-difluoro-allyl]-5-oxo-1,2,4-triazol-4-yl]methyl]phenyl]-1-ethyl-pyridin-2-one Trifluoroacetate] |  |  |  |  | > 100000 nM | > 100000 nM | 0.6 nM | > 100000 nM
Cc1cc(-c2ccc(N3CCNCC3)cc2)cnc1-n1cnn(CC(CN)=C(F)F)c1=O [Example 69, 2-[2-(aminomethyl)-3,3-difluoro-allyl]-4-[3-methyl-5-(4-piperazin-1-ylphenyl)-2-pyridyl]-1,2,4-triazol-3-one Ditrifluoroacetate] | > 100000 nM | > 100000 nM | 1.2 nM | > 100000 nM |  |  |  | 
CCn1cc(-c2ccc3sc(Cn4cnn(CC(CN)=C(F)F)c4=O)cc3c2)cn1 [Example 212, 2-[2-(aminomethyl)-3,3-difluoro-allyl]-4-[[5-(1-ethylpyrazol-4-yl)benzothiophen-2-yl]methyl]-1,2,4-triazol-3-one Trifluoroacetate] |  |  |  |  | 79100 nM | 4320 nM | 1.5 nM | > 100000 nM
NCC(Cn1ncn(-c2ncc(-c3ccc(N4CCNCC4)cc3)cc2F)c1=O)=C(F)F [Example 83, 2-[2-(aminomethyl)-3,3-difluoro-allyl]-4-[3-fluoro-5-(4-piperazin-1-ylphenyl)-2-pyridyl]-1,2,4-triazol-3-one Ditrifluoroacetate] | > 100000 nM | 250 nM | 0.4 nM | > 10000 nM |  |  |  | 
Cc1cc(-n2cnn(CC(CN)=C(F)F)c2=O)cnc1-c1ccc(N(C)C)nc1 [Example 78, 2-[2-(aminomethyl)-3,3-difluoro-allyl]-4-[6-[6-(dimethylamino)-3-pyridyl]-5-methyl-3-pyridyl]-1,2,4-triazol-3-one Trifluoroacetate] | > 100000 nM | 57 nM | 0.6 nM | 9800 nM |  |  |  | 
Cc1cc(-c2ccc(N3CCNCC3)cc2)sc1Cn1cnn(CC(CN)=C(F)F)c1=O [Example 155, 2-[2-(aminomethyl)-3,3-difluoro-allyl]-4-[[3-methyl-5-(4-piperazin-1-ylphenyl)-2-thienyl]methyl]-1,2,4-triazol-3-one Ditrifluoroacetate] | > 100000 nM | 50000 nM | 56 nM | > 100000 nM |  |  |  | 
NCC(Cn1ncn(-c2cnc(-c3ccc(C(F)(F)F)nc3)cn2)c1=O)=C(F)F [Example 91, 2-[2-(aminomethyl)-3,3-difluoro-allyl]-4-[5-[6-(trifluoromethyl)-3-pyridyl]pyrazin-2-yl]-1,2,4-triazol-3-one Trifluoroacetate] | > 100000 nM | 1 nM | 0.5 nM | 200 nM |  |  |  | 
